Measured values as given in article PMC12300041, “Tricyclic Isatin Derivatives as Anti-Inflammatory Compounds with High Kinase Binding Affinity” (Molecules, 2025).

Columns and labels:
Assay in all cases: KINOMEscan
Type in all cases: binding
MST2 = biological target: T1, MST2 (Homo sapiens, UniProt Q13188)
T1 construct: purchased Eurofins DiscoverX KINOMEscan
How it was run: (§1)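 Competition binding run for 1 h at room temperature; kinase left unbound by compound was captured on an immobilized affinity ligand and quantified by qPCR. Kd was taken from a 12-point half-log dilution series with a 33 μM top concentration.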

PLK1 = biological target: T2, PLK1 (Homo sapiens, UniProt P53350)
T2 construct: purchased Eurofins DiscoverX KINOMEscan
How it was run: as §1

KIT (A829P) = biological target: T3, KIT (A829P) (Homo sapiens, UniProt P10721, A829P)
T3 construct: purchased Eurofins DiscoverX KINOMEscan
How it was run: as §1

TSSK3 = biological target: T4, TSSK3 (Homo sapiens, UniProt Q96PN8)
T4 construct: purchased Eurofins DiscoverX KINOMEscan
T4 sequence (Q96PN8 whole entry): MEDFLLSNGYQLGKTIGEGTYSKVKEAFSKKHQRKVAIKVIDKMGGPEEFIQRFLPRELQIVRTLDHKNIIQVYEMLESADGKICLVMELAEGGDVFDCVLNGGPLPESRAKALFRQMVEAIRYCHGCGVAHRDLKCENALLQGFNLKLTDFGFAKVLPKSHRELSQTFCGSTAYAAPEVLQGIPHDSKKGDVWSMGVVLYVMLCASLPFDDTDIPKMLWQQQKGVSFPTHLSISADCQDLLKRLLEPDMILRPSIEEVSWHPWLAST
How it was run: as §1

CSNK1G1 = biological target: T5, CSNK1G1 (Homo sapiens, UniProt Q9HCP0)
T5 construct: purchased Eurofins DiscoverX KINOMEscan
How it was run: as §1

SNARK = biological target: T6, SNARK (Homo sapiens, UniProt Q9H093)
T6 construct: purchased Eurofins DiscoverX KINOMEscan
T6 sequence (Q9H093 whole entry): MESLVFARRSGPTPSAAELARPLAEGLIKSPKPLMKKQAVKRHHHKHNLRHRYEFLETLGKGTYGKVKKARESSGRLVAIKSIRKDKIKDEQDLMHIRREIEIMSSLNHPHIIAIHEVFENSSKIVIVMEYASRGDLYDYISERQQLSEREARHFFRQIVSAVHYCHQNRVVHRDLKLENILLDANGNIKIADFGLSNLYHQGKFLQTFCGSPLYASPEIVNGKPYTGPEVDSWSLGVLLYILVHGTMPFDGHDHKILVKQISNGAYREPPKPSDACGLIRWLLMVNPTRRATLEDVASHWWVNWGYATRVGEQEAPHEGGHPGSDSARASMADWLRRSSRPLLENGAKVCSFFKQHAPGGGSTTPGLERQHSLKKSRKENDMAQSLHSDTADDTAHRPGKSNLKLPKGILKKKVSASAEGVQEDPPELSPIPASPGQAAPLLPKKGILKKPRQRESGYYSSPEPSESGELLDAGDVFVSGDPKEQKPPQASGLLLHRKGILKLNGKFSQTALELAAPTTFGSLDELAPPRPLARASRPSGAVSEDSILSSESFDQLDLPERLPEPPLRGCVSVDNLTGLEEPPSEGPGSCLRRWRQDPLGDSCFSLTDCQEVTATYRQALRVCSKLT
How it was run: as §1

EIF2AK1 = biological target: T7, EIF2AK1 (Homo sapiens, UniProt Q9BQI3)
T7 construct: purchased Eurofins DiscoverX KINOMEscan
How it was run: as §1

MET (Y1235D) = biological target: T8, MET (Y1235D) (Homo sapiens, UniProt P08581, Y1235D)
T8 construct: purchased Eurofins DiscoverX KINOMEscan
How it was run: as §1

MST3 = biological target: T9, MST3 (Homo sapiens, UniProt Q9Y6E0)
T9 construct: purchased Eurofins DiscoverX KINOMEscan
How it was run: as §1

TYRO3 = biological target: T10, TYRO3 (Homo sapiens, UniProt Q06418)
T10 construct: purchased Eurofins DiscoverX KINOMEscan
T10 sequence (Q06418 41-890): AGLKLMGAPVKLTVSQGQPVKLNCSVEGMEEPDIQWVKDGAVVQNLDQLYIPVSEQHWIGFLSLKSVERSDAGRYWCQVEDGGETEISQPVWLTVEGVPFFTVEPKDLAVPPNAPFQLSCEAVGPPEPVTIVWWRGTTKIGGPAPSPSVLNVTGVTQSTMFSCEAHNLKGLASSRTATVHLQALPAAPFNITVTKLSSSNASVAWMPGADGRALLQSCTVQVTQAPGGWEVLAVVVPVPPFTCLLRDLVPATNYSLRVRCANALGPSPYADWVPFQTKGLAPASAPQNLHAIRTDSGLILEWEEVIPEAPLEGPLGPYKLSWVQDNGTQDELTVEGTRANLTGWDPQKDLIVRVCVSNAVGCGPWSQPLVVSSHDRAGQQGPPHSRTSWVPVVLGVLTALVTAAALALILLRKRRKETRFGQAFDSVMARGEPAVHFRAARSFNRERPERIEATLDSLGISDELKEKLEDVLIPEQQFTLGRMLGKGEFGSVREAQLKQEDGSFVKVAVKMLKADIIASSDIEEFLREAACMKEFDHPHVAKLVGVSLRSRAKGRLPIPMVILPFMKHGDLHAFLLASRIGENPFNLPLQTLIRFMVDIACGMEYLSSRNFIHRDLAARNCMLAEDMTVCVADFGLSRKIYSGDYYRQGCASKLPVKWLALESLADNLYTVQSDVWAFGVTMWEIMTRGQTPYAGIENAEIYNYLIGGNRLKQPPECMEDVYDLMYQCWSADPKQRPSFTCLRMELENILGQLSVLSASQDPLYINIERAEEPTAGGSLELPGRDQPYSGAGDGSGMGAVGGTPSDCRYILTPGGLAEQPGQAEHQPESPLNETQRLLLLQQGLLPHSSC
How it was run: as §1

PIK3CB = biological target: T11, PIK3CB (Homo sapiens, UniProt P42338)
T11 construct: purchased Eurofins DiscoverX KINOMEscan
T11 sequence (P42338 whole entry): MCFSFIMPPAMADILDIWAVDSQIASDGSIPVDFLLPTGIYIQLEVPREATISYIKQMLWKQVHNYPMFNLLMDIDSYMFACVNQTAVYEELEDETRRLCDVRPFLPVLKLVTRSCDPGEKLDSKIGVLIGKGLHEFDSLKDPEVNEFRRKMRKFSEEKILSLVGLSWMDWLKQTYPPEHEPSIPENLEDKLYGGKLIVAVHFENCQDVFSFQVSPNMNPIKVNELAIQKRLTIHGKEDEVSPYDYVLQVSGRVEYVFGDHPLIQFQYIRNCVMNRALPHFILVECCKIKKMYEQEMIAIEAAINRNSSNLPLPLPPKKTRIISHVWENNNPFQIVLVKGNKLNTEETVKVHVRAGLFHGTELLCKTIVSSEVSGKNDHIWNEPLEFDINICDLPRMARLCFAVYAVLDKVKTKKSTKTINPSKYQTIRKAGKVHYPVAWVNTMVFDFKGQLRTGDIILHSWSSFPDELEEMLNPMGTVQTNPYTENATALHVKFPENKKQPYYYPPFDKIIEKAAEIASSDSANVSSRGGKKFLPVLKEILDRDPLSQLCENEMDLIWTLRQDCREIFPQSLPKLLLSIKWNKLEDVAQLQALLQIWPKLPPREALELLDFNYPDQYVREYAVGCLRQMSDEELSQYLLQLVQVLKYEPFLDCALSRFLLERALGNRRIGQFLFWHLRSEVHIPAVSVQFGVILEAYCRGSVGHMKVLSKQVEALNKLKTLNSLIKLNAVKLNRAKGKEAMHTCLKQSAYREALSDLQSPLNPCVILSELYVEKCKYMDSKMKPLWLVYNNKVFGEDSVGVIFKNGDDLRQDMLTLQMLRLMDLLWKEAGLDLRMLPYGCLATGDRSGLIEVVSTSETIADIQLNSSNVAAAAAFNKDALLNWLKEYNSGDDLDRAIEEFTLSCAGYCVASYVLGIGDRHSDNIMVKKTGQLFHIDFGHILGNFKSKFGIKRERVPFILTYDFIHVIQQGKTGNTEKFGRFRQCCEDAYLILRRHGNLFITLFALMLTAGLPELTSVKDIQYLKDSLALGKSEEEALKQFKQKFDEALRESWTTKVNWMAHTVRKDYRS
How it was run: (§2)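 Active-site competition format. Unbound kinase fraction measured by affinity-ligand capture plus qPCR after 1 h at RT. Kd from 12-point half-log titration, maximum 33 μM.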

IRAK4 = biological target: T12, IRAK4 (Homo sapiens, UniProt Q9NWZ3)
T12 construct: purchased Eurofins DiscoverX KINOMEscan
How it was run: as §2

EGFR = biological target: T13, EGFR (Homo sapiens, UniProt P00533)
T13 construct: purchased Eurofins DiscoverX KINOMEscan
How it was run: as §1

CSK = biological target: T14, CSK (Homo sapiens, UniProt P41240)
T14 construct: purchased Eurofins DiscoverX KINOMEscan
How it was run: as §1

TAOK1 = biological target: T15, TAOK1 (Homo sapiens, UniProt Q7L7X3)
T15 construct: purchased Eurofins DiscoverX KINOMEscan
How it was run: as §1

PAK1 = biological target: T16, PAK1 (Homo sapiens, UniProt Q13153)
T16 construct: purchased Eurofins DiscoverX KINOMEscan
How it was run: as §1

PDPK1 = biological target: T17, PDPK1 (Homo sapiens, UniProt O15530)
T17 construct: purchased Eurofins DiscoverX KINOMEscan
How it was run: as §1

PIP5K2C = biological target: T18, PIP5K2C (Homo sapiens, UniProt Q8TBX8)
T18 construct: purchased Eurofins DiscoverX KINOMEscan
How it was run: as §2

MST1R = biological target: T19, MST1R (Homo sapiens, UniProt Q04912)
T19 construct: purchased Eurofins DiscoverX KINOMEscan
How it was run: as §1

CAMK1B = biological target: T20, CAMK1B (Homo sapiens, UniProt Q6P2M8)
T20 construct: purchased Eurofins DiscoverX KINOMEscan
How it was run: as §2

WNK3 = biological target: T21, WNK3 (Homo sapiens, UniProt Q9BYP7)
T21 construct: purchased Eurofins DiscoverX KINOMEscan
How it was run: as §1

CDK4 = biological target: T22, CDK4 (Homo sapiens, UniProt P11802)
T22 construct: purchased Eurofins DiscoverX KINOMEscan
How it was run: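 Compound and kinase were incubated at room temperature for 1 h, the free kinase fraction was captured with an immobilized affinity ligand, and capture was quantified by quantitative PCR; Kd values used a 12-point half-log series up to 33 μM.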

[1] = biological target: T23, RSK4 (Kin. Dom.2-C-term.) (Homo sapiens, UniProt Q9UK32)
T23 construct: RSK4 (Kin. Dom.2-C-term.); purchased Eurofins DiscoverX KINOMEscan
How it was run: as §1

CHEK1 = biological target: T24, CHEK1 (Homo sapiens, UniProt O14757)
T24 construct: purchased Eurofins DiscoverX KINOMEscan
How it was run: as §1

ARK5 = biological target: T25, ARK5 (Homo sapiens, UniProt O60285)
T25 construct: purchased Eurofins DiscoverX KINOMEscan
How it was run: as §1

NEK6 = biological target: T26, NEK6 (Homo sapiens, UniProt Q9HC98)
T26 construct: purchased Eurofins DiscoverX KINOMEscan
How it was run: as §1

MLK1 = biological target: T27, MLK1 (Homo sapiens, UniProt P80192)
T27 construct: purchased Eurofins DiscoverX KINOMEscan
How it was run: as §1

WEE2 = biological target: T28, WEE2 (Homo sapiens, UniProt P0C1S8)
T28 construct: purchased Eurofins DiscoverX KINOMEscan
How it was run: as §1

ZAP70 = biological target: T29, ZAP70 (Homo sapiens, UniProt P43403)
T29 construct: purchased Eurofins DiscoverX KINOMEscan
How it was run: as §1

EPHA8 = biological target: T30, EPHA8 (Homo sapiens, UniProt P29322)
T30 construct: purchased Eurofins DiscoverX KINOMEscan
How it was run: as §1

SRMS = biological target: T31, SRMS (Homo sapiens, UniProt Q9H3Y6)
T31 construct: purchased Eurofins DiscoverX KINOMEscan
T31 sequence (Q9H3Y6 whole entry): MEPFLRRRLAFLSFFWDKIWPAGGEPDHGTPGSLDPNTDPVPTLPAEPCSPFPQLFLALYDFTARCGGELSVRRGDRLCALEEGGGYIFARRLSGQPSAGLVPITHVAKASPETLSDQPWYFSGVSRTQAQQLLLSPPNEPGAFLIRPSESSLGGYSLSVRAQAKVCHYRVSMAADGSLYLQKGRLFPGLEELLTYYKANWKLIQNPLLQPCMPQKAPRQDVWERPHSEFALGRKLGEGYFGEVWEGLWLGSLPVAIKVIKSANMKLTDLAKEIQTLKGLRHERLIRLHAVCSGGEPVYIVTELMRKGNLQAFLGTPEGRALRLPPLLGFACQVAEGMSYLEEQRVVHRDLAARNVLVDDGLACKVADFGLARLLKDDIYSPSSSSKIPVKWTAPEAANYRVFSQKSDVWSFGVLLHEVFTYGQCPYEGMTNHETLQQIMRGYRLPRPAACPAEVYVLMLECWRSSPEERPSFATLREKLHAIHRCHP
How it was run: as §1

CLK3 = biological target: T32, CLK3 (Homo sapiens, UniProt P49761)
T32 construct: purchased Eurofins DiscoverX KINOMEscan
How it was run: as §1

DCAMKL1 = biological target: T33, DCAMKL1 (Homo sapiens, UniProt O15075)
T33 construct: purchased Eurofins DiscoverX KINOMEscan
How it was run: as §1

ACVR2B = biological target: T34, ACVR2B (Homo sapiens, UniProt Q13705)
T34 construct: purchased Eurofins DiscoverX KINOMEscan
How it was run: as §2

PKAC-β = biological target: T35, PKAC-β (Homo sapiens, UniProt P22694)
T35 construct: purchased Eurofins DiscoverX KINOMEscan
How it was run: as §1

MYLK = biological target: T36, MYLK (Homo sapiens, UniProt Q15746)
T36 construct: purchased Eurofins DiscoverX KINOMEscan
How it was run: as §1

FGFR3 = biological target: T37, FGFR3 (Homo sapiens, UniProt P22607)
T37 construct: purchased Eurofins DiscoverX KINOMEscan
T37 sequence (P22607 23-806): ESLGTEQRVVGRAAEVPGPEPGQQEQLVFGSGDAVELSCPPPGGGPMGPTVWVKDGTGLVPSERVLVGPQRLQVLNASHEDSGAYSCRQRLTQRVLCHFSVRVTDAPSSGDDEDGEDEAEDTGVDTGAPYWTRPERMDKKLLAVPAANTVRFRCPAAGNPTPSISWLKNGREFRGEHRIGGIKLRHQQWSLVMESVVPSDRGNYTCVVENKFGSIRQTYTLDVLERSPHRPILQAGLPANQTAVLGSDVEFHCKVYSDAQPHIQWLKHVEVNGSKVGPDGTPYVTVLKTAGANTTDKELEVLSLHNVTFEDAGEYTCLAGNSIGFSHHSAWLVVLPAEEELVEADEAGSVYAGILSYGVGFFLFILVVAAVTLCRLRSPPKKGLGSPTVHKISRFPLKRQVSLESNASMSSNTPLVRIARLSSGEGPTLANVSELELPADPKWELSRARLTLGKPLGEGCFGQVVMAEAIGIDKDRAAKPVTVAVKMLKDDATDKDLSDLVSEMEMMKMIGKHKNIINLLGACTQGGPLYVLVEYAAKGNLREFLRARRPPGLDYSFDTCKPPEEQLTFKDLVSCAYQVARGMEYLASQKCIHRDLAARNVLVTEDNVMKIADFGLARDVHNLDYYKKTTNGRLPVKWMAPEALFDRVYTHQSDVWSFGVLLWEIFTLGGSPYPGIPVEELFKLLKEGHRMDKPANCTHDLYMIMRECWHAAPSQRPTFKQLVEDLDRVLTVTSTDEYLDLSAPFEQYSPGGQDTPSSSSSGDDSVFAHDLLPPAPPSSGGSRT
How it was run: as §2

KIT-autoinhibited = biological target: T38, KIT-autoinhibited (Homo sapiens, UniProt P10721)
T38 construct: purchased Eurofins DiscoverX KINOMEscan
How it was run: as §2

LOK = biological target: T39, LOK (Homo sapiens, UniProt O94804)
T39 construct: purchased Eurofins DiscoverX KINOMEscan
T39 sequence (O94804 whole entry): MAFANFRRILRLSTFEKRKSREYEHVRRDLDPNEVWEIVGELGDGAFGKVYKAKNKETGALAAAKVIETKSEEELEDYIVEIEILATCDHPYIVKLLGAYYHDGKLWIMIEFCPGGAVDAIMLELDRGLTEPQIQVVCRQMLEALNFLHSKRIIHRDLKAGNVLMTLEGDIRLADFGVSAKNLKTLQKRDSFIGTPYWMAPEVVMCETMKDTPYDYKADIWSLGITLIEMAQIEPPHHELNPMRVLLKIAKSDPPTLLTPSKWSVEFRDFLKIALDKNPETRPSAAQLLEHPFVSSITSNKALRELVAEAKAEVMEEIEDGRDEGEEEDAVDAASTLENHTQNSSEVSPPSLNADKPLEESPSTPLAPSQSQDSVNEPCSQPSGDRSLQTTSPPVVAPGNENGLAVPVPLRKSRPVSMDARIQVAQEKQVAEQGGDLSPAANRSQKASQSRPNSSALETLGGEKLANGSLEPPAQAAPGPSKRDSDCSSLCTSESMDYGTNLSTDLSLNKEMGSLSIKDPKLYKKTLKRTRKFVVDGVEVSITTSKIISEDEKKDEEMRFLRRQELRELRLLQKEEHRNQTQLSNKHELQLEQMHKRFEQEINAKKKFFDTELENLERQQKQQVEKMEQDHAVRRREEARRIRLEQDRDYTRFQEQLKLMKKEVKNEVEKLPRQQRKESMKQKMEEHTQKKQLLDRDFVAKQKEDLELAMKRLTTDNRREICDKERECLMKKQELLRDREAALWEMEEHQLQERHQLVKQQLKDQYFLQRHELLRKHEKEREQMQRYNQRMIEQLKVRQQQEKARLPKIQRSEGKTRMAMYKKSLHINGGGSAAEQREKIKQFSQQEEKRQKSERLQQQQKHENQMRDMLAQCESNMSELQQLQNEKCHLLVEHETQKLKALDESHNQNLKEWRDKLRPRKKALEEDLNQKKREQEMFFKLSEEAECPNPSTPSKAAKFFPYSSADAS
How it was run: as §1

PRKD2 = biological target: T40, PRKD2 (Homo sapiens, UniProt Q9BZL6)
T40 construct: purchased Eurofins DiscoverX KINOMEscan
How it was run: as §1

Compound `O=C1Nc2c(cc([N+](=O)[O-])c3c2CCCC3)C1=NO` [Compound 5d, 3-(Hydroxyimino)-5-nitro-1,3,6,7,8,9-hexahydro-2H-benzo[g]indol-2-one] has an inhibition at 10 µM (MST2) of 39%, an inhibition at 10 µM (PLK1) of 71% and an inhibition at 10 µM (KIT (A829P)) of 0%. The inhibition at 10 µM (TSSK3) was 61%, the inhibition at 10 µM (CSNK1G1) was 84% and the inhibition at 10 µM (SNARK) was 90%. The inhibition at 10 µM (EIF2AK1) was 40%, the inhibition at 10 µM (MET (Y1235D)) was 25% and the inhibition at 10 µM (MST3) was 62%. The inhibition at 10 µM (TYRO3) was 18%, the inhibition at 10 µM (PIK3CB) was 0% and the inhibition at 10 µM (IRAK4) was 86%. For the same compound, the inhibition at 10 µM (EGFR) was 15%, the inhibition at 10 µM (CSK) was 21% and the inhibition at 10 µM (TAOK1) was 62%. For the same compound, the inhibition at 10 µM (PAK1) was 0%, the inhibition at 10 µM (PDPK1) was 8% and the inhibition at 10 µM (PIP5K2C) was 40%. For the same compound, the inhibition at 10 µM (MST1R) was 0%, the inhibition at 10 µM (CAMK1B) was 12% and the inhibition at 10 µM (WNK3) was 28%. The inhibition at 10 µM (CDK4) was 7%, the inhibition at 10 µM [1] was 36% and the inhibition at 10 µM (CHEK1) was 2%. It also gave an inhibition at 10 µM (ARK5) of 24%, an inhibition at 10 µM (NEK6) of 17% and an inhibition at 10 µM (MLK1) of 18%. It also gave an inhibition at 10 µM (WEE2) of 0%, an inhibition at 10 µM (ZAP70) of 2% and an inhibition at 10 µM (EPHA8) of 0%. For the same compound, the inhibition at 10 µM (SRMS) was 29%, the inhibition at 10 µM (CLK3) was 19% and the inhibition at 10 µM (DCAMKL1) was 29%. The inhibition at 10 µM (ACVR2B) was 25%, the inhibition at 10 µM (PKAC-β) was 2% and the inhibition at 10 µM (MYLK) was 93.9%. The inhibition at 10 µM (FGFR3) was 14%, the inhibition at 10 µM (KIT-autoinhibited) was 0% and the inhibition at 10 µM (LOK) was 73%. The inhibition at 10 µM (PRKD2) was 77%.
